According to PubChem BioAssay (NCI):
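In this assay, cells in 96-well plates receive the compound at five concentrations for 48 hours. Endpoints are linearly interpolated between the surrounding concentrations. Abbreviation: GI50, concentration required for 50% inhibition of growth. TGI denotes the concentration required for complete inhibition of growth.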

Tests used:
Experiment in all cases: inhibition of tumour cell growth, NCI panel, 48 h
SNB-19 CNS = test system: SNB-19 CNS
MALME-3M melanoma = test system: MALME-3M melanoma
SR leukemia = test system: SR leukemia
NCI-H226 lung = test system: NCI-H226 lung
OVCAR-8 ovarian = test system: OVCAR-8 ovarian
MCF7 breast = test system: MCF7 breast
A498 renal = test system: A498 renal
HCT-116 colon = test system: HCT-116 colon
UO-31 renal = test system: UO-31 renal
A549 NSCLC = test system: A549 NSCLC

Structure (SMILES) | GI50 (SNB-19 CNS) | TGI (SNB-19 CNS) | GI50 (MALME-3M melanoma) | TGI (MALME-3M melanoma) | GI50 (SR leukemia) | TGI (SR leukemia) | GI50 (NCI-H226 lung) | TGI (NCI-H226 lung) | GI50 (OVCAR-8 ovarian) | TGI (OVCAR-8 ovarian) | GI50 (MCF7 breast) | TGI (MCF7 breast) | GI50 (A498 renal) | TGI (A498 renal) | GI50 (HCT-116 colon) | TGI (HCT-116 colon) | GI50 (UO-31 renal) | TGI (UO-31 renal) | GI50 (A549 NSCLC) | TGI (A549 NSCLC)
Cc1ccc(/C(=N/NS(=O)(=O)c2cc(C)c(Cl)cc2Cl)Sc2cc(Cl)c(C)cc2S(N)(=O)=O)cc1 | > 100 µM | > 100 µM | 63.6 µM | > 100 µM | 41 µM | > 100 µM | > 100 µM | > 100 µM | > 100 µM | > 100 µM | > 100 µM | > 100 µM | > 100 µM | > 100 µM | > 100 µM | > 100 µM | > 100 µM | > 100 µM | > 100 µM | > 100 µM
Clc1ccc(-c2cnc3c(-c4ccnc(N5CCNCC5)c4)cnn3c2)cc1 | 2.02 µM | 4.03 µM | 1.86 µM | 3.31 µM | 1.6 µM | 4.58 µM | 21.4 µM | 44.7 µM | 2.21 µM | 4.31 µM | 1.85 µM | 3.66 µM | 1.65 µM | 3.06 µM | 1.71 µM | 3.09 µM | 1.61 µM | 3.59 µM | 1.96 µM | 3.69 µM
COc1cc2c(/C=C3\C(=O)N(C)c4ccccc43)c[nH]c2cc1C | 4.15 µM | > 100 µM | 1 µM | > 53.9 µM | 2.07 µM | 14.2 µM | 20.3 µM | > 58.1 µM | 4.14 µM | 45.1 µM | 0.12 µM | > 100 µM | 4.96 µM | 48.9 µM | 0.369 µM | > 41.7 µM | 11.5 µM | > 62 µM | 2.39 µM | > 66.8 µM
CN1CCN(C)C1c1ccc(C2N(C)CCN2C)cc1 | 39.5 µM | > 100 µM | > 100 µM | > 100 µM | 28.5 µM | > 100 µM | > 100 µM | > 100 µM | 38.4 µM | > 100 µM | 20.1 µM | > 100 µM | 14.4 µM | > 100 µM | 17.8 µM | 38 µM | > 100 µM | > 100 µM | > 100 µM | > 100 µM
O=C(Nc1ccc(Cl)c(C(F)(F)F)c1)Nc1ccc(-c2cccnc2)cc1N1CCC(CO)CC1 | 3.89 µM | > 100 µM | 2.27 µM | 7.36 µM | 3.49 µM | > 100 µM | 2.68 µM | 9.79 µM | 3.75 µM | 35.4 µM | 2.2 µM | 6.96 µM | 1.26 µM | 4.42 µM | 2.53 µM | 6.9 µM | 2.43 µM | > 100 µM | 3.45 µM | 23.8 µM
Nc1nc(Sc2ccc([N+](=O)[O-])c3nonc23)c2ncn(C3OC(CO)C(O)C3O)c2n1 (stereo not given) | > 63.5 µM | > 100 µM | 9.8 µM | > 42.1 µM | 0.113 µM | > 41.2 µM | 2.2 µM | 29 µM | 0.794 µM | > 46 µM | 0.373 µM | 13.6 µM | 2.28 µM | 14 µM | 0.428 µM | 13.6 µM | 0.902 µM | 43.6 µM | 4.27 µM | > 100 µM
Cc1ccc(-c2cc(C(=O)Nc3ccc(S(=O)(=O)N4CCCCC4)cc3)[nH]n2)c(O)c1 | > 100 µM | > 100 µM | > 100 µM | > 100 µM | 22.3 µM | > 100 µM | > 100 µM | > 100 µM | > 100 µM | > 100 µM | > 100 µM | > 100 µM | > 100 µM | > 100 µM | > 100 µM | > 100 µM | > 100 µM | > 100 µM | > 100 µM | > 100 µM
COc1cc(-n2cc(-c3ccc(Cl)cc3)n(-c3ccccc3)c2=O)cc(OC)c1OC | 36.7 µM | > 100 µM | 21.2 µM | 75.2 µM | 4.48 µM | > 38.4 µM | 29.9 µM | 97.1 µM | 27.7 µM | > 100 µM | 15.9 µM | 56 µM | 15.1 µM | 74.5 µM | 13.7 µM | > 89 µM | 16.6 µM | > 93.9 µM | 19.3 µM | > 100 µM
CCCCCCOC(=O)CC1=C(C)/C(=C/c2[nH]c(-c3ccc[nH]3)cc2OC)N=C1C | 0.271 µM | 2.76 µM | 0.345 µM | 1.44 µM | 0.0307 µM | 0.182 µM | 0.137 µM | 1.06 µM | 0.238 µM | 1.21 µM | 0.0961 µM | 1.38 µM | 0.321 µM | 1.33 µM | 0.0311 µM | 1.05 µM | 0.163 µM | 0.329 µM | 0.361 µM | 1.26 µM
COc1cc(OC)c(C(=O)/C=C/c2ccc(C#N)cc2)c(OC)c1 | 1.84 µM | 6.87 µM | 2.23 µM | 10.3 µM | 0.813 µM | > 50 µM | 2.67 µM | > 50 µM | 1.98 µM | > 50 µM | 1.49 µM | > 50 µM | 1.33 µM | 3.95 µM | 1.07 µM | 3.82 µM | 1.29 µM | 6.26 µM | 1.85 µM | > 50 µM
Cn1cnc([N+](=O)[O-])c1S(=O)(=O)Oc1ccc(Cl)cc1 | > 100 µM | > 100 µM | 1.99 µM | 4.15 µM | 1.85 µM | 4.36 µM | 18.6 µM | 58 µM | 18.8 µM | 97.1 µM | 22.9 µM | 96.1 µM | 17 µM | 42.5 µM | 8.59 µM | 21.8 µM | 2.36 µM | 8.75 µM | 58.2 µM | > 100 µM
CCOC(=O)Cc1csc(NC(=O)C(OC(=O)c2ccc(Cl)cc2)c2ccccc2)n1 (stereo not given) | 50.5 µM | > 100 µM | 47.9 µM | > 100 µM | 13.4 µM | 58.7 µM | 54.4 µM | > 100 µM | 64.8 µM | > 100 µM | 34 µM | > 100 µM | > 100 µM | > 100 µM | 29 µM | > 100 µM | 47.1 µM | > 100 µM | 47.1 µM | > 100 µM
